Reference: patent EP0218400A1, “Assay methods for chemotherapeutic agents” (DAMON BIOTECH, INC., priority 1985, dated 1987)

Experiments:
[1] = test system: MOLT-4 human lymphoma cells; assay: In vivo sensitivity of encapsulated MOLT-4 cells in nude mice, NCI schedule; conditions: Adriamycin 6 mg/kg, 15 days after transplantation
Procedure: (§1) In the experiments that follow, the drugs and other agents tested were administered to the host animal by injection at the various times called for in the protocol being tested. At various periods after treatment, the mice were killed by cervical dislocation. The peritoneal cavity of each mouse was washed with PBS or medium and floating microcapsules were aspirated using a large bore plastic Pasteur pipette. Microcapsules were transferred to 15 ml tubes and washed 3 to 4 times with PBS to remove host peritoneal cells. The washed microcapsules were aspirated into 1 ml serological pipettes, allowed to sediment, and the volume of packed microcapsules was determined. Microcapsules were then transferred to a glas dounce homogenizer (7 ml volume) and disrupted with 3 strokes of an A-tolerance plumger. Cells suspensions were filtered through nylon mesh to remove the disrupted membranes. The suspensions containing tumor cells were centrifuged and the pellet was resuspended in 0.25 to 0.5 ml of complete medium. After mixing equal volumes of cell suspension and trypan blue, viable cell counts were determined using a hemocytometer.
(§2) The number of tumor cells per 1 ml of packed microcapsules was determined as follows: a = ? where b = total number of tumor cells in the suspension, and c = total volume of microcapsules used for the preparation of this suspension.
(§3) By comparing the number of tumor cells in 1 ml of microcapsules derived from non-treated and drug-treated mice, the percent inhibition of tumor cell growth was calculated: [formula] where ac = number of tumor cells from the non-treated control microcapsules, and ae = number of tumor cells from the drug treated microcapsules.
In the next experiment various drugs were administered in vivo according to schedules and doses typically used for screening antitumor effects of the drugs at the National Cancer Institute, Developmental Therapeutics program.
MOLT-4 human lymphoma cells were encapsulated and transplanted into peritoneum of nude mice. Doses of various drugs were applied i.v. at 1, 5 and 9 days after tumor cell transplantation.

[2] = test system: human Melanoma LOX cells; assay: In vivo susceptibility of encapsulated LOX melanoma cells in nude mice
Procedure: as §1, §2, §3
In this series of experiments, cells of a fourth human cancer type, Melanoma LOX cells, were used. LOX cells have recently been proposed as the model for experimental treatment at the NCI Development Therapeutics Program. Following i.p. inoculation of the suspension of LOX Melanoma cells into nude mice, various drugs were administered i.v. and survival of the treated mice was determined (Schoemaker et al., Proceeding American Association for Cancer Research, 26, 1302, 1985) (mice transplanted with the non-encapsulated tumor cells were considered tumor-free if they survived during 3 months of observation). In parallel experiments encapsulated LOX Melanoma cells were transferred into nude mice and drugs were inoculated i.v. 1, 5 and 9 days at the dose and schedule utilized by the Dr. Shoemaker's procedure.

Question: How did the “inhibition of tumor cell proliferation (in words)” value ([1]; 5-FU 60 mg/kg i.v. days 1, 5, 9) turn out when `COc1cccc2c1C(=O)c1c(O)c3c(c(O)c1C2=O)C[C@@](O)(C(=O)CO)C[C@@H]3O[C@H]1C[C@H](N)[C@H](O)[C@H](C)O1` [Adriamycin] was run?
Answer: The value was “dramatic inhibition of tumor cell proliferation”.

Question: What about the inhibition at 6 mg/kg ([1]; Mus musculus, MOLT-4, iv, 360 h, i.v. days 1, 5, 9, Cyclophosphamide 100 mg/kg, 5-Fu 60 mg/kg, nude mice) of the same molecule?
Answer: The inhibition at 6 mg/kg was 95%.

Question: What about the “No of viable tumor cells per 1 ml of capsules” value ([1]; i.v. days 1, 5, 9, Cyclophosphamide 100 mg/kg, 5-Fu 60 mg/kg, nude mice) of the same molecule?
Answer: Its value is 2.7 x 10^6.

Question: And the “sensitivity of encapsulated LOX cells to the treatment (in words)” value ([2]; i.v. days 1, 5, 9)?
Answer: Its value is “most sensitive”.

Question: What about the “No. of viable tumor cells per 1 ml. of capsules” value ([2]; i.v. days 1, 5, 9, Adriamycin 6, BCNU 20, CY 100, 5-Fu 60 mg/kg) of the same molecule?
Answer: The value was 6 x 10^5.
